Results taken from PMC10547238, “Discovery of Potent Tetrazole Free Fatty Acid Receptor 2 Antagonists” (Journal of Medicinal Chemistry, 2023).
Entries after “also recorded” stand apart in the source; their conditions may differ.

What was measured:
[1] = Pharmacokinetic study in mice; assay type: in vivo; details: male, BALB/cAnC, mouse, plasma
Description: The study was performed by Bienta (www.bienta.net). Study design, animal selection, handling, and treatment were all in accordance with the Enamine PK study protocols and Institutional Animal Care and Use Guidelines. Animal treatment and plasma sample preparation were conducted by the Animal Laboratory personnel at Enamine/Bienta. Male BALB/cAnC mice (10–11 weeks old, body weight: 16.0–21.7 g and average body weight across all groups: 19.1 g, SD = 1.2 g) were used in this study. The animals were randomly assigned to the treatment groups before the pharmacokinetic study; all animals were fasted for 4 h before dosing. Intravenous (IV) and peroral (PO) routes of administration were done according to the following; eight time points for each route (3, 7, 15, 30, 60, 120, 240, and 480 min) for the IV route and (5, 10, 15, 30, 60, 120, 240, and 480 min) for the PO route were set for this pharmacokinetic study. Each of the time point treatment group included three animals. There was also one control animal. Compound 16l in the vehicle (DMSO–Cremophor EL–water w/5% mannitol, 1:1:8) was dosed at 10 mg/kg po and 5 mg/kg iv. Dosing volumes of compounds or vehicle were 5 mL/kg. Mice were injected iv with 2,2,2-tribromoethanol at a dose of 150 mg/kg prior to drawing the blood. Blood collection was performed from the orbital sinus in microtainers containing K3EDTA. Animals were sacrificed by cervical dislocation after the blood sample collection. Blood samples were centrifuged for 10 min at 3000 rpm. Before analysis, plasma samples (40 μL) were added 200 μL of a solution with transilast as the internal standard (200 ng/mL in water–methanol mixture 1:9, v/v). After mixing by pipetting and centrifuging for 4 min at 6000 rpm, 0.5 μL of each supernatant was analyzed by HPLC-MS/MS on an API 3000 PE instrument.

[2] = test system: human neutrophils; experiment: Human neutrophil migration (Transwell); assay type: cell-based
Description: Human peripheral blood neutrophils were isolated from healthy volunteer buffy coats. Initially, the majority of red blood cells were sedimented using 2% w/v dextran sulfate in a 0.9% NaCl solution for 15 min. Next, the upper phase was centrifuged for 10 min at 200g and the supernatant was discarded. The pellet was resuspended in 0.9% NaCl solution, and neutrophils were separated from here using Lymphoprep (STEMCELL Technologies #07851) and density-gradient centrifugation (400g for 30 min). Then, the remaining red blood cells were subjected to hypotonic lysis by addition of 10 mL of sterile water followed by addition of 10 mL of 1.8% NaCl solution. Cell count and viability were determined using trypan blue and a Countess cell counter. […]
Freshly isolated human peripheral neutrophils were used in migration assays using the Boyden style Corning HTS Transwell 96 well system with 3 μm pores (Corning #3385). […] Finally, the number of cells that had migrated to the bottom chamber was assessed using the ATPLite Luminescence assay system (PerkinElmer #6016943) according to the manufacturer’s instructions. Luminescence was measured on an LUMIstar Omega microplate reader (PerkinElmer). Experiments were performed in triplicate and analyzed using GraphPad Prism (version 9). Fold response was calculated as the relative migration of samples compared to the vehicle control.

AUC(0-inf) ([1]; iv admin 5 mg/kg): 7350 ng·h/mL | Vd ([1]; iv admin 5 mg/kg): 0.4 L/kg | half-life ([1]; iv admin 5 mg/kg): 24 min | clearance ([1]; iv admin 5 mg/kg, read-out: CLtotal): 11 mL/min/kg | bioavailability ([1]; po 10 mg/kg vs iv 5 mg/kg): 44% | AUC(0-inf) ([1]; po admin 10 mg/kg): 6480 ng·h/mL | Cmax ([1]; po admin 10 mg/kg): 6240 ng/mL | Tmax ([1]; po admin 10 mg/kg): 30 min
SMILES: COc1cccc(CC(=O)N[C@@H](Cc2ccc(C(F)(F)F)cc2)Cc2nnn[nH]2)c1 [Compound 16l, (S)-N-(1-(1H-Tetrazol-5-yl)-3-(4-(trifluoromethyl)phenyl)propan-2-yl)-2-(3-methoxyphenyl)acetamide]
effect on neutrophil migration induced by fMLP ([2]; fMLP-induced): did not exhibit any effect | inhibition of propionate-induced neutrophil migration ([2]; propionate (C3) 1 mM): completely inhibit; also recorded: fully inhibit migration; also recorded: complete inhibition
